Activity calls are given as the source filed them. No cut-off for these calls is given here. Square brackets hold non-standard residues; d marks the D form. Peptide text beside a SMILES is read from it. * marks the point of attachment. Biotin = O=C1N[C@H]2[C@H](CS[C@H]2CCCCC(=O)*)N1; Ahx = NCCCCCC(=O)O
Key:
HT-29 = assay: Cytotoxicity against human HT-29 cells; assay type: functional, cell-based
HT-1080 [1] = assay: Binding affinity to beta-tubulin in human HT1080 cells after overnight incubation by SDS-PAGE; assay type: cell-based
Tubulin (Sus scrofa) [2] = target: T1, Tubulin (Sus scrofa) (UniProt P02554+P02550); assay: Binding affinity to pig tubulin assessed as irradiation-time-dependent labeling at 2 uM treated for 30 mins followed by photo-irradiation at 365 nm by CBB staining-based SDS-PAGE; assay type: protein assay; conditions: TDE = time-dependent effect
Sus scrofa [3] = organism: Sus scrofa; assay: Binding affinity to pig alpha-tubulin at 2 uM treated for 30 mins followed by photo-irradiation at 365 nm for 30 secs measured after 1 hr by Western blot analysis
Sus scrofa [4] = organism: Sus scrofa; assay: Binding affinity to pig beta-tubulin at 2 uM treated for 30 mins followed by photo-irradiation at 365 nm for 30 secs measured after 1 hr by Western blot analysis
Tubulin (Sus scrofa) [5] = target: T1, Tubulin (Sus scrofa); assay: Binding affinity to pig tubulin at 2 uM treated for 30 mins followed by photo-irradiation at 365 nm for 30 secs measured after 1 hr by Western blot analysis in presence of increasing concentration of plinabulin; assay type: protein assay
Tubulin (Sus scrofa) [6] = target: T1, Tubulin (Sus scrofa); assay: Binding affinity to pig tubulin at 2 uM treated for 30 mins followed by photo-irradiation at 365 nm for 30 secs measured after 1 hr by Western blot analysis in presence of 100 equivalents of colchicine; assay type: protein assay
Tubulin (Sus scrofa) [7] = target: T1, Tubulin (Sus scrofa); assay: Binding affinity to pig tubulin at 2 uM treated for 30 mins followed by photo-irradiation at 365 nm for 30 secs measured after 1 hr by Western blot analysis in presence of 5-100 equivalents of biotin; assay type: protein assay
Tubulin (Sus scrofa) [8] = target: T1, Tubulin (Sus scrofa); assay: Binding affinity to pig tubulin at 2 uM treated for 30 mins followed by photo-irradiation at 365 nm for 30 secs measured after 1 hr by CBB staining-based SDS-PAGE; assay type: protein assay
Tubulin = Tubulin (Sus scrofa, UniProt P02554+P02550); assay: Binding affinity to pig tubulin after 1 hr by fluorescence quenching analysis; assay type: protein assay
HT-1080 [9] = assay: Binding affinity to alpha-tubulin in human HT1080 cells after overnight incubation by SDS-PAGE; assay type: cell-based
Tubulin (Sus scrofa) [10] = target: T1, Tubulin (Sus scrofa); assay: Binding affinity to pig tubulin at 2 uM treated for 30 mins followed by photo-irradiation at 365 nm for 30 secs measured after 1 hr by Western blot analysis; assay type: protein assay

T1 sequence (P02550 whole entry, looked up): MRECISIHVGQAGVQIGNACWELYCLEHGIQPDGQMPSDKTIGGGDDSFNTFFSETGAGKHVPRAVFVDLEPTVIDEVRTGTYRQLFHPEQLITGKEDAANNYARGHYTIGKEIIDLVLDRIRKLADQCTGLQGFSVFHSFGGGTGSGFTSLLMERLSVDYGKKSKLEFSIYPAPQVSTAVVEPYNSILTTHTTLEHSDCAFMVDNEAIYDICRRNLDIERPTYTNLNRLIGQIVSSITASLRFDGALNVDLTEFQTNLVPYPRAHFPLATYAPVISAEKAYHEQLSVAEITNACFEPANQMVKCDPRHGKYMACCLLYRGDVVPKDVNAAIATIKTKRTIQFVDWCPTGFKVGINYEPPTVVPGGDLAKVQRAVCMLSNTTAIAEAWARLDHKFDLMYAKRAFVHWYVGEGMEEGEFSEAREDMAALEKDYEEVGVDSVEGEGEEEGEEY
T1 sequence (P02554 whole entry, looked up): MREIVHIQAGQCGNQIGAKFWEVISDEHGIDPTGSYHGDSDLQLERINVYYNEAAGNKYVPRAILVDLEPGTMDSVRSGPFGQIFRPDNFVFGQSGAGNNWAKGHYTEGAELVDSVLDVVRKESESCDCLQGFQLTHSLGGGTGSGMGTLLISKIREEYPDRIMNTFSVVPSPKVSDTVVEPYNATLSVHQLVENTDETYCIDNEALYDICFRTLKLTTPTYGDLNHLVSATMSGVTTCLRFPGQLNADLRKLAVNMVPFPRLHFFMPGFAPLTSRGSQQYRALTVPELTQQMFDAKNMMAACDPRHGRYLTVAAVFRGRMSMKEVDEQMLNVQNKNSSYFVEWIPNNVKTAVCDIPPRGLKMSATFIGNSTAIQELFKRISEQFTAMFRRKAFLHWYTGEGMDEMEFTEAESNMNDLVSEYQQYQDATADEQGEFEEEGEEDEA

Row | Kd (Tubulin) [nM] | Structure (SMILES) | IC50 (HT-29) [nM] | Activity (HT-1080 [1]) | Activity (HT-1080 [9]) | further results
1 |  | CC(C)(C)c1ocnc1/C=c1\[nH]c(=O)/c(=C/c2cccc(C(=O)c3ccccc3)c2)[nH]c1=O | 4 |  |  | 
2 | 25170 | CC(C)(C)c1ocnc1/C=c1\[nH]c(=O)/c(=C/c2cccc(C(=O)c3ccc(CNC(=O)CCCCCNC(=O)CCCCCNC(=O)CCCCCNC(=O)CCCCCNC(=O)[C@H](CCCCN)NC(=O)[C@H](CCCCN)NC(=O)CCCCCNC(=O)CCCCCNC(=O)CCCC[C@@H]4SC[C@@H]5NC(=O)N[C@@H]54)cc3)c2)[nH]c1=O (stereo in doubt) |  | Active | Active | Activity (Tubulin (Sus scrofa) [2]): tde; Activity (Sus scrofa [3]): Active; Activity (Sus scrofa [4]): Active; Activity (Tubulin (Sus scrofa) [5]): inactive; Activity (Tubulin (Sus scrofa) [6]): inactive; Activity (Tubulin (Sus scrofa) [7]): Active; Activity (Tubulin (Sus scrofa) [8]): Active
3 |  | NCCCC[C@H](NC(=O)CCCCCNC(=O)CCCCCNC(=O)CCCC[C@@H]1SC[C@@H]2NC(=O)N[C@@H]21)C(=O)N[C@@H](CCCCN)C(=O)NCCCCCC(=O)NCCCCCC(=O)NCCCCCC(=O)NCCCCCC(=O)O ({Biotin-Ahx-Ahx}-KK[Ahx][Ahx][Ahx][Ahx]-OH) |  | inactive | inactive | 
4 | 9740 | CC(C)(C)c1ocnc1/C=c1\[nH]c(=O)/c(=C/c2cccc(C(=O)c3ccc(CNC(=O)CCCCCNC(=O)CCCCCNC(=O)CCCC[C@@H]4SC[C@@H]5NC(=O)N[C@@H]54)cc3)c2)[nH]c1=O (stereo in doubt) |  |  |  | Activity (Tubulin (Sus scrofa) [10]): Active

Row | Structure (SMILES) | Kd (Tubulin) [nM] | IC50 (HT-29) [nM] | Activity (HT-1080 [1]) | Activity (HT-1080 [9]) | further results
5 | CC(C)(C)c1[nH]cnc1/C=c1\[nH]c(=O)/c(=C/c2ccccc2)[nH]c1=O [PLINABULIN] | 1060 | 15 |  |  | 
